System: AMPAR
Assay: AMPAR EPSCs in DCN cartwheel cells in brain slices, ZX1 potentiation
Format: cell-based, mice
Details: slices treated with peptide 3 μM; ZX1 100 μM; −70 mV
Description: Male and female mice (postpartum days 18-28) were anesthetized with isoflurane and sacrificed. Brains were rapidly dissected and sectioned into 210 μm thick coronal slices containing dorsal cochlear nucleus (DCN) on a vibratome (Leica, VT1000S). Slices were incubated in ACSF containing 130 mM NaCl, 3 mM KCl, 2.4 mM CaCl2, 1.3 mM MgCl2, 20 mM NaHCO3, 3 mM HEPES, and 10 mM glucose, saturated with 95% O2/5% CO2 (vol/vol), pH ˜7.3, ˜300 mOsm at 35° C. for 1 hour before being moved to room temperature. During preparation, ACSF was treated with Chelex 100 resin to remove any contaminating zinc. After applying Chelex to the ACSF, high-purity calcium and magnesium salts were added (99.995% purity). All plastic and glassware were washed with 5% high-purity nitric acid.
For brain slice recordings, whole-cell recordings of NMDAR EPSCs in slice DCN cartwheel cells were obtained with micropipettes (3-6 MΩ) containing 128 mM Cs(CH3O3S), 4 mM MgCl2·6H2O, 4 mM Na2ATP, 10 mM HEPES, 0.3 mM Tris-GTP, 10 mM Tris-phosphocreatine, 1 mM CsEGTA, 1 mM, QX-314, 3 mM sodium ascorbate, pH=˜7.2, 300 mOsm. […] NMDAR EPSCs were recorded in voltage clamp mode, at a holding potential of +40 mV, in the presence of DNQX (20 μM, AMPA and kainate receptor antagonist), SR95531. […] AMPA EPSCs were recorded in voltage clamp mode at a holding potential of −70 mV in the presence of SR9551. […]

Row | Sequence | ZX1 potentiation of AMPAR EPSCs
1 | SNLSDSYDR [scN2AZ, reference compound] | 30.3±10.24%
2 | NDSYLRSSL [Peptide N2AZ] | 29.3±6.70%
